Source: patent US11364286B2, “Compositions and methods for the treatment of diseases involving mucin” (priority 2015, dated 2022)
Counter-ions that a name gives are not always drawn.

Columns and labels:
[1] = test system: human ovarian cancer cell line A2780; test: Cell viability, SRB assay, 3 days, A2780; format: cell-based; set-up: unit not given here; conditions: A2780, 3 days
Experimental: All cells were maintained at 37° C. The cytotoxic effects of cysteamine, bromelain and the chemotherapeutic agent cisplatin were assessed. Each agent was administered to the cells either alone or in combination with either or both of the other agents. All cells were treated for 72 hours with the reagents and the cell populations were assessed using the SRB assay. Where possible, IC50 and ICmax were calculated. […] Cells were subjected to various treatment regimens as indicated for 3 days before SRB assays were performed.

[2] = test system: human colorectal cancer cell line HT295M12; test: Cell viability, SRB assay, 3 days, HT295M12; format: cell-based; conditions: Column B=Cysteamine 1 mg/ml (FIG. 19)
Experimental: (§1) Mesothelioma (YOU and PET), gastric (KATO-III), Colorectal (LS174T and HT295m21), pancreatic (ASPC-1 and CFPAC) and ovarian (A2780) cell lines were grown in RPMI supplemented with 10% FBS, 100 U/ml penicillin and 100 μg/ml streptomycin. All cells were maintained at 37° C.
(§2) The cytotoxic effects of cysteamine, bromelain and the chemotherapeutic agent cisplatin were assessed. Each agent was administered to the cells either alone or in combination with either or both of the other agents. All cells were treated for 72 hours with the reagents and the cell populations were assessed using the SRB assay. Where possible, IC50 and ICmax were calculated.
Data from two independent experiments are represented as mean±SD (6 replicates for each treatment group).

[3] = test system: hard mucin from PMP patients; test: Disintegration of hard PMP mucin (weight of remnant mucin); format: biochemical, human; conditions: 50 mM cysteamine, alone or with 50 μg/ml bromelain; 37°C, 3 hours
[4] = test system: YOU mesothelioma cells; test: Cell viability, SRB assay, 72 h, YOU cells; format: cell-based; conditions: Cysteamine single agent
Experimental: (§3) 5000 cells of each cell line were plated in 96 well plates and grown for 48 hrs at 37° C. in humidified CO2 incubator. After this the medium was replaced with drugs, bromelain, cysteamine and cisplatin in alone or in various combinations. Control wells had medium only. Plates were further incubated for 72 hrs. At the end of incubation proliferation was determined by SRB assay. […]
(§4) 6. The plate was read in a microplate reader (PowerWaveX, BIO-TEK instruments, Inc, USA) with the working wavelength 570 nm. […]
(§5) The cytotoxic effects of cysteamine, bromelain and the chemotherapeutic agent cisplatin were assessed. […] All cells were treated for 72 hours with the reagents and the cell populations were assessed using the SRB assay. Where possible, IC50 and ICmax were calculated.
(§6) Using Chou and Tallarida Method (Tallarida R J. The interaction index: a measure of drug synergism. Pain 2002; 98: 163-168), the Interaction index (γ) was evaluated for a combination of 2 and 3 drugs (γ=1 (additive) (ADD); γ=<1 (synergistic) (SYN) and γ=>1 (sub-additive) (SUB)).

[5] = test system: soft mucin from PMP patients; test: Disintegration of soft PMP mucin (weight of remnant mucin after incubation with the agents); format: biochemical, human; conditions: for effect of individual agents on mucin weight over time: Bromelain 300 & 200 μg/ml, NAC 250 mM, Cysteamine 200 mM alone, 0.5-3 h 37°C; for Percentage Disintegration of Mucin Samples: 0 μg/ml BR, negative = gain in weight
Experimental: Mucin samples from PMP patients were collected and stored under sterile conditions at −80° C. For experiments, the mucin was thawed to room temperature before use. One gram of soft mucin was transferred to a 50 ml centrifuge tube containing 10 ml of either 0.1 M TRIS buffer (pH. 7.0)—controls or similar arrangement containing various concentrations of cysteamine, bromelain or a mixture of the latter two reagents. The concentrations of bromelain investigated ranged from 100-300 μg/ml whilst for cysteamine it was 12.5, 25, 50, 100 and 200 mM. Stock solutions were prepared under sterile conditions in TRIS buffer pH adjusted to 7.0 using 0.1 M Sodium Hydroxide or 0.1 M Hydrochloric acid and the required quantities were added to the respective centrifuge tubes containing the mucin. The tubes were then transferred to a shaking water bath at 37° C. for 2 hours.
At the end of incubation, the remnant mucin was retrieved and weighed. The experiment was carried out using triplicate tubes and readings averaged. All experiments were performed in triplicate.
To a 50 ml centrifuge tube containing 1 g of mucin was added 10 ml of TRIS pH. 7.0 containing 300 μg/ml bromelain+250 mM NAC. Similarly, to 1 g of mucin was added 10 ml of TRIS buffer containing 200 μg/ml bromelain+200 mM cysteamine. For each time interval (0.5, 1.0, 1.5, 2.0, 2.5 and 3.0 h), a total of 6 tubes in triplicate were prepared. The controls contained, TRIS, Bromelain (300 μg/ml & 200 μg/ml), NAC (250 mM) and Cysteamine (200 mM) with mucin (also prepared for each time interval, in triplicates).
The tubes were incubated at 37° C., in a shaker water bath, sample tubes were retrieved at time interval of 0.5 hour and remnant mucin was carefully retrieved and weighed. Percentage weight lost was calculated as follows:
Percentage weight lost (disintegration)=[mucin weight (at 0 hr)−mucin weight (2 or 3 hr)]/mucin weight (at 0 hr).
The experiment was set up as outlined above in Examples 1 and 2 above, however using 10, 20, 40, 60, 80 & 100 μg/ml bromelain with varying concentrations of cysteamine (10, 20, 30, 40 & 50 mM) and the incubation was carried out at 37° C. in a shaker for 3 hours. The controls contained TRIS buffer, 10, 20, 40, 60, 80 & 100 μg/ml bromelain and 10, 20, 30, 40 & 50 mM cysteamine. Each tube was prepared in triplicate and readings averaged.
Experiments were set up as before using 1 g of mucin in a 50 ml centrifuge tube containing either TRIS buffer (pH 7.0), 50 μg/ml bromelain, 50 mM cysteamine or a combination of the last two agents. Six samples from each grades of mucin (soft, semi-hard and hard) were chosen for the experiment and the tubes were incubated in a shaker water bath at 37° C. for duration of 3 hours. The remnant mucin were carefully retrieved and weighed.

[6] = test system: PET mesothelioma cells; test: Cell viability, SRB assay, 72 h, PET cells; format: cell-based; conditions: Cysteamine single agent
Experimental: as §3, §4, §5, §6

[7] = test system: HT29 colorectal cancer cells; test: Proliferation, SRB assay, 72 hour culture, HT29; format: cell-based; conditions: individually or in combination
Experimental: (§7) 5000 cells of each cell line were plated in 96 well plates and grown for 48 hrs at 37° C. in humidified CO2 incubator. After this the medium was replaced with drugs, bromelain, cysteamine and cisplatin in alone or in various combinations. Control wells had medium only. Plates were further incubated for 72 hrs. At the end of incubation proliferation was determined by SRB assay.
(§8) Materials and Method: • 0.4% (w/v) SRB: 1.0 g SRB— Sulforhodamine B sodium salt—(#S1402, SIGMA) in 250 ml of 1% acetic acid (stored at room temperature) • 10% (w/v) TCA: 50 g of Trichloroacetic acid (#T9159, SIGMA) in 500 ml of Milli-Q water (stored at 4° c.) • 10 mM Tris Base: 0.6055 g Tris (Trizma® base, #T6066, SIGMA) in 500 ml of Milli-Q water (stored at 4° c.) • 1% acetic acid: 10 ml of acetic acid in 1000 ml of Milli-Q water.
(§9) 1. After an incubation period of 72 hours, the old medium was discarded and cells were fixed with 200 μl of 10% (w/v) ice-cold TCA (trichloroacetic acid) for 30 minutes at 4° C.
(§10) 2. The plate was washed in distilled water 5 times.
(§11) 3. 100 μl of 0.4% (w/v) sulphorhodamine (SRB) solution was added to each well of the dry 96-well plates and they were allowed staining at room temperature for 10 mins.
4. […]
as §4

[8] = test system: human gastric cancer cell line KATO-III; test: Cell viability, SRB assay, 3 days, KATO-III; format: cell-based; conditions: Cysteamine only
Experimental: as §1, §2
Cells were subjected to various treatment regimens as indicated for 3 days before SRB assays were performed. Data are represented as mean±SD (6 replicates for each treatment group).

[9] = test system: MKN45 gastric cancer cells; test: Proliferation, SRB assay, 72 hour culture, MKN45; format: cell-based, human; conditions: combination at the highest concentrations tested
Experimental: as §7, §8, §9, §10, §11
4. […]
as §4

[10] = FIG. 22B, 0.25 mg/ml, lowest of 0.25-1 mg/ml
[11] = FIG. 22B, 1 mg/ml, highest of 0.25-1 mg/ml
[12] = FIG. 22B, middle concentration of 0.25-1 mg/ml, value not given
[13] = FIG. 22C, 0.25 mg/ml, lowest of 0.25-1 mg/ml
[14] = FIG. 22C, 1 mg/ml, highest of 0.25-1 mg/ml
[15] = FIG. 22C, middle concentration of 0.25-1 mg/ml, value not given
[16] = FIG. 22A, 0.25 mg/ml, lowest of 0.25-1 mg/ml
[17] = FIG. 22A, 1 mg/ml, highest of 0.25-1 mg/ml
[18] = FIG. 22A, middle concentration of 0.25-1 mg/ml, value not given

SMILES | Mean Diff. (Holm-Sidak's multiple comparisons test), control vs. treatment [1, 10] | Mean Diff. (Holm-Sidak's multiple comparisons test), control vs. treatment [1, 11] | Mean Diff. (Holm-Sidak's multiple comparisons test), control vs. treatment [1, 12] | Mean Diff. (Holm-Sidak's multiple comparisons test), control vs. treatment [1, 13] | Mean Diff. (Holm-Sidak's multiple comparisons test), control vs. treatment [1, 14] | Mean Diff. (Holm-Sidak's multiple comparisons test), control vs. treatment [1, 15] | Mean Diff. (Holm-Sidak's multiple comparisons test), control vs. treatment [1, 16] | Mean Diff. (Holm-Sidak's multiple comparisons test), control vs. treatment [1, 17] | Mean Diff. (Holm-Sidak's multiple comparisons test), control vs. treatment [1, 18] | effect of individual agents on mucin weight over time [5] | further results
N[C@@H](CS)C(=O)O [L-Cysteine] | 10.30 | 51.11 | 25.30 | – | – | – | – | – | – | – | –
N[C@@H](CCC(=O)N[C@@H](CS)C(=O)NCC(=O)O)C(=O)O [L-Glutathione reduced] | – | – | – | 25.68 | 32.71 | 19.54 | – | – | – | – | –
NCCS [Cysteamine, cysteamine] | 30.75 | 81.49 | 53.01 | 55.93 | 88.77 | 70.70 | 40.75 | 87.12 | 61.62 | only showed hydration initially, with subsequent slight disintegration and hydration | Mean Diff., Column A (control) vs. Column B [2]: 9.610; hydration of hard mucin [3]: dramatic percentage of hydration; IC50 (as Cysteamine) [4]: 560 µg/mL; ICmax ([4]; at 11.3 mg/ml cysteamine): 94% at 11.3 mg/ml; effect of single agents on mucin weight ([5]; Bromelain 100, 200, 300 μg/ml or Cysteamine 12.5-200 mM as single agents, 2 h 37°C): only showed the mucin gaining weight, indicating hydration; Percentage Disintegration of Mucin Samples ([5]; CIS 12.5 mM, 2 h 37°C): −117%; Percentage Disintegration of Mucin Samples ([5]; CIS 25 mM, 2 h 37°C): −115%; Percentage Disintegration of Mucin Samples ([5]; CIS 50 mM, 2 h 37°C): −100%; Percentage Disintegration of Mucin Samples ([5]; CIS 100 mM, 2 h 37°C): −111%; Percentage Disintegration of Mucin Samples ([5]; CIS 200 mM, 2 h 37°C): −86%; IC50 (as Cysteamine) [6]: 781 µg/mL; ICmax ([6]; at 11.3 mg/ml cysteamine): 85% at 11.3 mg/ml; inhibition of growth [7]: no or little effect; Mean Diff., Column A (control) vs. Column B ([8]; 0.3 mg/ml (FIG. 20B, Table 14B)): −1.313; Mean Diff., Column A (control) vs. Column B ([8]; 0.5 mg/ml (FIG. 20A, Table 14A)): 21.10; Mean Diff., Column A (control) vs. Column B ([8]; 0.5 mg/ml (FIG. 20C, Table 14C)): 49.64; effect on in vitro growth [9]: no or little effect
CC(=O)N[C@@H](CS)C(=O)O [NAC, N-acetyl cysteine] | 15.35 | 17.73 | 9.290 | 25.62 | 30.51 | 18.03 | 20.45 | 23.92 | 18.80 | only showed hydration initially, with subsequent slight disintegration and hydration | –
NCCS [Cysteamine dihydrochloride] | – | – | – | – | – | – | 55.20 | 94.04 | 74.31 | – | –
